The values that follow come from ChEMBL document CHEMBL6087405, “Discovery and optimization of anthraquinone derivatives containing substituted bisbenzyloxy groups as a novel scaffold damaged endoplasmic reticulum and against hepatocellular carcinoma cells” (Bioorg Med Chem, 2024).

Counter-ions that a name gives are not always drawn. Peptide text beside a SMILES is read from it. * marks the point of attachment. Cbz = O=C(OCc1ccccc1)*

One experiment relates to MDA-MB-231. In words: Antiproliferative activity against human MDA-MB-231 cells measured after 48 hrs by MTT assay. The settings on record: MDA-MB-231, 48 h. The format is functional, cell-based. (Formazan colour is commonly taken as a measure of viable cells.)
Experiment [1] has as its system Huh-7. Nature of the experiment: Antiproliferative activity against human Huh-7 cells measured after 48 hrs by MTT assay. The format is functional, cell-based. The settings on record: Huh-7, 48 h.
The test system of another experiment is A549. In words: Antiproliferative activity against human A549 cells measured after 48 hrs by MTT assay. The format is functional, cell-based. The settings on record: A549, 48 h.
In experiment [2] the test system is Huh-7. Nature of the experiment: Induction of apoptosis in human Huh-7 cells assessed as necrotic cells at 20 uM measured after 48 hrs by Annexin V-PE staining based flow cytometry analysis (reference value: 3.37%). The format is functional. A general note: Flow cytometry measures light scatter and fluorescence of single cells or particles in a stream.
The subject of experiment [3] is Huh-7. Nature of the experiment: Induction of apoptosis in human Huh-7 cells assessed as late apoptotic cells at 20 uM measured after 48 hrs by Annexin V-PE staining based flow cytometry analysis (reference value: 2.06%). The format is functional.
For experiment [4], the system named is Huh-7. In words: Induction of apoptosis in human Huh-7 cells assessed as early apoptotic cells at 20 uM measured after 48 hrs by Annexin V-PE staining based flow cytometry analysis (reference value: 0.88%). The format is functional.
In experiment [5] the test system is Huh-7. In words: Induction of apoptosis in human Huh-7 cells assessed as viable cells at 20 uM measured after 48 hrs by Annexin V-PE staining based flow cytometry analysis (reference value: 93.69%). The following applies: read-out: Activity. The format is functional.

Take `COc1ccc(COc2cccc3c2C(=O)c2c(OCc4ccc(OC)cc4)cc(C(=O)NCCCCCCO)cc2C3=O)cc1`: the half-maximal inhibitory concentration (IC50) in the experiment with MDA-MB-231 worked out at 0.97 µM; with Huh-7 [1], 1.13 µM; in the experiment with A549, 3.49 µM.

Take `O=C(NCCO)c1cc(OCc2ccc(Cl)cc2)c2c(c1)C(=O)c1cccc(OCc3ccc(Cl)cc3)c1C2=O`: the figures for the IC50 in the experiment with MDA-MB-231, with Huh-7 [1] and in the experiment with A549 were 3.46 µM, 4.79 µM and 21.1 µM, respectively.

`COc1cccc2c1C(=O)c1c(O)c3c(c(O)c1C2=O)C[C@@](O)(C(=O)CO)C[C@@H]3O[C@H]1C[C@H](N)[C@H](O)[C@H](C)O1` [DOXORUBICIN HYDROCHLORIDE] yielded an IC50 in the experiment on MDA-MB-231 of 3.14 µM.

`Cc1ccc(COc2cccc3c2C(=O)c2c(OCc4ccc(C)cc4)cc(C(=O)NCCCCO)cc2C3=O)cc1`: the concentration for half-maximal inhibition (IC50) in the experiment on MDA-MB-231 is 1.29 µM; in the experiment with Huh-7 [1] it was 1.98 µM; in the experiment on A549 it was 3.36 µM.

For the compound `Cc1ccc(COc2cccc3c2C(=O)c2c(OCc4ccc(C)cc4)cc(C(=O)NCCCCCO)cc2C3=O)cc1`, the IC50 was determined as 2.48 µM in the experiment with MDA-MB-231, 5.08 µM in the experiment on Huh-7 [1] and 12.3 µM in the experiment on A549.

Consider `O=C(NCCNCCO)c1cc(OCc2ccc(Cl)cc2)c2c(c1)C(=O)c1cccc(OCc3ccc(Cl)cc3)c1C2=O`, for which the IC50 in the experiment with MDA-MB-231 was 2.24 µM; with Huh-7 [1], 40.4 µM; with A549, > 100 µM.

`Cc1ccc(COc2cccc3c2C(=O)c2c(OCc4ccc(C)cc4)cc(C(=O)NCCOCCO)cc2C3=O)cc1`: the results for the half-maximal inhibitory concentration (IC50) in the experiment on MDA-MB-231, in the experiment with Huh-7 [1] and in the experiment on A549 were 6.14 µM, 14.9 µM and > 100 µM, respectively.

For the compound `COc1ccc(COc2cccc3c2C(=O)c2c(OCc4ccc(OC)cc4)cc(C(=O)NCCO)cc2C3=O)cc1`, the IC50 is 2.45 µM in the experiment on MDA-MB-231, 2.71 µM in the experiment with Huh-7 [1] and 4.68 µM in the experiment on A549.

Regarding `O=C(NCCCCCCO)c1cc(OCc2ccccc2)c2c(c1)C(=O)c1cccc(OCc3ccccc3)c1C2=O`, the values for the concentration for half-maximal inhibition (IC50) with MDA-MB-231, with Huh-7 [1] and in the experiment on A549 were 2.82 µM, 8.87 µM and 62.5 µM, respectively.

As to `Cc1ccc(COc2cccc3c2C(=O)c2c(OCc4ccc(C)cc4)cc(C(=O)NCCO)cc2C3=O)cc1`, the 50% inhibitory concentration (IC50) with MDA-MB-231 came out at 2.81 µM; in the experiment with Huh-7 [1], 4.37 µM; with A549, 13.1 µM.

`O=C(NCCNCCO)c1cc(OCc2ccccc2)c2c(c1)C(=O)c1cccc(OCc3ccccc3)c1C2=O`: the IC50 in the experiment with MDA-MB-231 came to 1.27 µM; in the experiment on Huh-7 [1], 1.98 µM; in the experiment with A549, 5.66 µM.

For `O=C(NCCCCCCO)c1cc(OCc2ccc(Cl)cc2)c2c(c1)C(=O)c1cccc(OCc3ccc(Cl)cc3)c1C2=O`, the results for the concentration for half-maximal inhibition (IC50) in the experiment on MDA-MB-231, with Huh-7 [1] and with A549 were 5.73 µM, 36 µM and > 100 µM, respectively.

Turning to `COc1ccc(COc2cccc3c2C(=O)c2c(OCc4ccc(OC)cc4)cc(C(=O)NCCCO)cc2C3=O)cc1`, the IC50 with MDA-MB-231 was determined as 1.94 µM; in the experiment on Huh-7 [1] it was 1.69 µM; in the experiment on A549 it was 3.55 µM.

For `COc1ccc(COc2cccc3c2C(=O)c2c(OCc4ccc(OC)cc4)cc(C(=O)NCCOCCO)cc2C3=O)cc1`, the IC50 in the experiment on MDA-MB-231 came out at 18.5 µM; in the experiment on Huh-7 [1] it was 9.24 µM; with A549 it was 17 µM.

As for `O=C(NCCCCO)c1cc(OCc2ccc(Cl)cc2)c2c(c1)C(=O)c1cccc(OCc3ccc(Cl)cc3)c1C2=O`, the results for the half-maximal inhibitory concentration (IC50) in the experiment on MDA-MB-231, with Huh-7 [1] and in the experiment with A549 were 17.5 µM, 20.9 µM and > 100 µM, respectively.

For the compound `O=C(O)c1cc(O)c2c(c1)C(=O)c1cccc(O)c1C2=O` [RHEIN], the IC50 in the experiment on MDA-MB-231, in the experiment on Huh-7 [1] and in the experiment on A549 was > 100 µM each time.

With `CNC(=O)c1cc(Oc2ccc(NC(=O)Nc3ccc(Cl)c(C(F)(F)F)c3)cc2)ccn1` [SORAFENIB], the IC50 in the experiment on Huh-7 [1] came out at 6.53 µM.

Take `Cc1ccc(COc2cccc3c2C(=O)c2c(OCc4ccc(C)cc4)cc(C(=O)NCCNCCO)cc2C3=O)cc1`: the IC50 with MDA-MB-231 came out at 0.91 µM; in the experiment on Huh-7 [1], 1.96 µM; in the experiment on A549 it was 4.76 µM.

On to `O=C(NCCOCCO)c1cc(OCc2ccccc2)c2c(c1)C(=O)c1cccc(OCc3ccccc3)c1C2=O`, for which the values for the IC50 in the experiment with MDA-MB-231, in the experiment with Huh-7 [1] and in the experiment on A549 were 113 µM, 64.4 µM and > 100 µM, respectively.

Take `Cc1ccc(COc2cccc3c2C(=O)c2c(OCc4ccc(C)cc4)cc(C(=O)NCCCO)cc2C3=O)cc1`: the 50% inhibitory concentration (IC50) in the experiment with MDA-MB-231 amounted to 1.15 µM; in the experiment on Huh-7 [1] it was 3.75 µM; in the experiment on A549, 5.79 µM.

For `COc1ccc(COc2cccc3c2C(=O)c2c(OCc4ccc(OC)cc4)cc(C(=O)NCCCCO)cc2C3=O)cc1`, the IC50 in the experiment with MDA-MB-231 came out at 0.86 µM; in the experiment on Huh-7 [1], 0.34 µM; in the experiment with A549 it was 5.04 µM.

In the case of `CC(C)[C@H](NC(=O)OCc1ccccc1)C(=O)N[C@@H](C)C(=O)N[C@@H](CC(=O)O)C(=O)O` (Cbz-Val-Ala-Asp-OH), the Activity with Huh-7 [2] is 5.83%; in the experiment on Huh-7 [3], 2.37%; in the experiment with Huh-7 [4] it was 0.72%. For the same compound, the viability at 20 µM in the experiment on Huh-7 [5] stood at 91.1%.

Consider `O=C(NCCCCCO)c1cc(OCc2ccc(Cl)cc2)c2c(c1)C(=O)c1cccc(OCc3ccc(Cl)cc3)c1C2=O`, for which the IC50 in the experiment with MDA-MB-231 was 16 µM; in the experiment with Huh-7 [1], 51 µM; in the experiment with A549 it was > 100 µM.

For the compound `COc1ccc(COc2cccc3c2C(=O)c2c(OCc4ccc(OC)cc4)cc(C(=O)NCCCCCO)cc2C3=O)cc1`, the figures for the IC50 in the experiment on MDA-MB-231, with Huh-7 [1] and with A549 were 2.84 µM, 4.14 µM and 5 µM, respectively.

On to `O=C(NCCCO)c1cc(OCc2ccc(Cl)cc2)c2c(c1)C(=O)c1cccc(OCc3ccc(Cl)cc3)c1C2=O`, for which the values for the half-maximal inhibitory concentration (IC50) in the experiment on MDA-MB-231, with Huh-7 [1] and with A549 were 6.36 µM, 5.87 µM and > 100 µM, respectively.

Regarding `O=C(NCCOCCO)c1cc(OCc2ccc(Cl)cc2)c2c(c1)C(=O)c1cccc(OCc3ccc(Cl)cc3)c1C2=O`, the IC50 is 7.1 µM with MDA-MB-231, 50.1 µM in the experiment on Huh-7 [1] and > 100 µM with A549.

Consider `Cc1ccc(COc2cccc3c2C(=O)c2c(OCc4ccc(C)cc4)cc(C(=O)NCCCCCCO)cc2C3=O)cc1`, for which the IC50 in the experiment on MDA-MB-231 worked out at 2.36 µM; in the experiment with Huh-7 [1], 4.83 µM; in the experiment with A549, 7.81 µM.

Broadly, the IC50 is the midpoint of a concentration-inhibition curve. The low end stands for higher potency, the high end for lower potency.
